# Data taken from patent US6030960A, “Method of treating hepatitis virus infections” (priority 1998, dated 2000).
# Values joined by “and” are separate entries in the source; they are usually repeats but may differ in a detail not shown here. Equal values may be shown once.
# Assays:
# Format in all cases: cell-based
# Hepatitis B virus [1] = test: Anti-hepatitis B virus activity in HEP-G2 cells persistently infected with HBV (Table 2); conditions: 10 μM; for activity at 10 µM: Hepatitis B virus, HepG2, 216 h, 9 days treatment
# Procedure: HEP-G2 cells persistently infected with HBV were treated daily with fresh D-MEM containing 20% FBS and 10 μM compound. After 9 days incubation and treatment, the overlay medium was harvested to assay the quantity of Hepatitis B virus s antigen (HBsAg) and HBeAg by EIA (Abbott Laboratories). The overlay medium was diluted to levels of antigen in the linear range of the assay. Standard curves using dilutions of positive HBsAg and HBeAg controls were included in each assay. Virion DNA was assayed using the method set forth in Korba and Gerin, Antiviral Res., 19, 5,5-70 (1992), incorporated by reference herein. HBV DNA was extracted from the overlay medium containing virus particles and analyzed by a slot-blot hybridization technique using ^32 P-labelled 3.2 Kb Eco R1 HBV DNA fragment by comparisons to HBV standards present on nitrocellulose filters using an AMBIS beta scanner. EC90 values (90% effective concentration, i.e., drug concentration which induces a 90% decrease in the levels of HBV DNA replication intermediates in treated versus control cells) were calculated by linear regression analysis. The relative levels of HBsAg, HBeAg and virion DNA were calulated as a percentage of the average levels obtained from the untreated controls.
# [2] = Cytotoxicity of alkyl lipids, neutral red dye uptake (Table 1); conditions: human, hep-g2 cells
# From the text: (§1) Initially, evaluations of the alkyl lipids were done to determine whether the compounds were cytotoxic to the cells at concentrations having anti-HBV activity. The assay methodology is szt forth in Korba and Germ, Antiviral Res., 19, 55-70 (1992), incorporated by reference herein. Briefly, these cell cytotoxicity evaluations were done in 96-well plates seeded with HEP-G2 cell monolayers. The hepatoblastoma cell line HEP-G2 transfected with a plasmid carrying the gene that confers resistance to […] and four 5'-3' tandem copies of the Hepatitis B virus genome was obtained from Dr. George Acs. Proc. Natl. Acad. Sci. USA, 84, 1005-1009 (1987). Serial concentrations of compound were added to the RPMI-1640 growth medium and the growth medium was added to the 96-well plates containing the cell monolayers. The cells were incubated for a total of nine days at 37° C. The compound-containing medium was periodically replaced. Each compound was tested at four serial concentrations in triplicate. After nine days of treatment and incubation, 0.01% neutral red dye (Sigma, Inc.) was added to the overlay medium. Cell cytotoxicity was quantitated by measuring the average A510. Values in Table 1 represent the percentage of average A510 values (±standard deviation) relative to nine non-treated control wells.
# Hepatitis B virus [3] = test: Effect of alkyl lipids on HBV replication in HBV persistently infected human HEP G2 cells (Table 6); conditions: for Intracellular HBV DNA, Mono (episomal 3.2-3.8 Kb HBV genomes) / Intracellular HBV DNA, RI (replication intermediates): nine days
# Procedure: Cells were treated with a particular compound for nine days at 37° C. Analysis of intracellular HEIV DNA was done 24 hours following the ninth day of treatment. […] The levels of integrated HBV DNA in each cellular DNA preparation were used to calculate the levels of episomal 3.2-3.8 Kb HBV genomes (Mono) and HBV DNA replication intermediates (RI). A zero value indicates an undetectable level of HBV virion DNA. The sensitivity cut-off was 0.1 pg DNA/ml of culture medium.
# Hepatitis B virus [4] = test: Effect on synthesis of antigen markers in persistently infected human HEP G2 cell cultures (Table 7); conditions: for activity at 10 µM: Hepatitis B virus, HepG2, 216 h
# Procedure: Cells were treated with compound for nine days at 37° C. The overlay medium was harvested to measure levels of HBsAg, HBeAg and virion DNA. HBsAg and HBeAg were assayed by EIA (Abbott Laboratories). Virion DNA levels were measured as described in section B above.
# [5] = Cytotoxicity in HBV persistently infected human HEP G2 cells, neutral red dye uptake (Table 5); conditions: human, hep-g2 cells, % of Control Neutral Red Dye Uptake
# From the text: as §1
# (§2) An analysis was periormed to determine the cytotoxicity of the following compounds in human HEP-G2 cells persistently infected with HBV: CP-51, CP-49, CP-9, CP-126, lyso PAF and CP-7. 2'-3'-Dideoxycytidine (ddC) was used as a control in this cytotoxicity analysis. The toxicity analyses were performed in 96-well flat bottomed tissue culture plates following the same procedure set forth in Example 6 above. Each compound was tested at four concentrations, each in triplicate cultures. Uptake of neutral red dye was used to determine the relative level of toxicity. The absorbance of internalized dye at […] (A510) was used for the quantitative analysis.
# (§3) Values are presented as a percentage of the average A510 values (± standard deviations) in ninz separate cultures of untreated cells maintained on the same 96-well plate as the test compounds. The percentage of dye uptake in the nine control cultures was 100±1.
# [6] = tested on: HEP G2 cells persistently infected with HBV; test: as above
# From the text: as §1, §2, §3
structure (smiles),measurement,setting,value
CCCCCCCCCCCCCCCC(=O)NCC(COP(=O)([O-])OCC[N+](C)(C)C)OC (centres unmarked) [CP-48],activity against HBV-induced virion DNA and HBeAg syntheses,Hepatitis B virus [1]; in words,no significant activity
same,activity at 10 µM,Hepatitis B virus [1]; read-out: Relative Level of HBeAg,88%
same,activity at 10 µM,Hepatitis B virus [1]; read-out: Relative Level of HBsAg,73%
same,activity at 10 µM,Hepatitis B virus [1]; read-out: Relative Level of Virion DNA,96%
same,"cytotoxicity at 216 h, 30 µM",[2],39%
same,"viability at 216 h, 3 µM",[2],102 ± 1%
same,"viability at 216 h, 10 µM",[2],97 ± 1%
same,"viability at 216 h, 30 µM",[2],61 ± 2%
same,"viability at 216 h, 100 µM",[2],24 ± 1%
"CCCCCCCCCCCCCCCCSCCOP(=O)([O-])OCC[N+](C)(C)C [CP-9, 2-hexadecylthio-1-ethylphosphocholine]",HBV Virion DNA,"Hepatitis B virus [3]; 1 μM, Day 0",59 pg/ml Culture Medium and 53 pg/ml Culture Medium and 60 pg/ml Culture Medium and 58 pg/ml Culture Medium and 50 pg/ml Culture Medium and 55 pg/ml Culture Medium and 65 pg/ml Culture Medium
same,HBV Virion DNA,"Hepatitis B virus [3]; 1 μM, Day 3",66 pg/ml Culture Medium and 60 pg/ml Culture Medium and 82 pg/ml Culture Medium and 55 pg/ml Culture Medium and 52 pg/ml Culture Medium and 64 pg/ml Culture Medium and 90 pg/ml Culture Medium and 63 pg/ml Culture Medium
same,HBV Virion DNA,"Hepatitis B virus [3]; 1 μM, Day 6",57 pg/ml Culture Medium and 52 pg/ml Culture Medium and 88 pg/ml Culture Medium and 78 pg/ml Culture Medium and 83 pg/ml Culture Medium and 91 pg/ml Culture Medium and 64 pg/ml Culture Medium
same,HBV Virion DNA,"Hepatitis B virus [3]; 1 μM, Day 9",69 pg/ml Culture Medium and 71 pg/ml Culture Medium and 94 pg/ml Culture Medium and 76 pg/ml Culture Medium and 80 pg/ml Culture Medium and 92 pg/ml Culture Medium
same,"Intracellular HBV DNA, Mono (episomal 3.2-3.8 Kb HBV genomes)",Hepatitis B virus [3]; 1 μM,2.1 pg/μg Cell DNA and 2.6 pg/μg Cell DNA and 2.3 pg/μg Cell DNA and 2.0 pg/μg Cell DNA and 2.2 pg/μg Cell DNA and 2.4 pg/μg Cell DNA
same,"Intracellular HBV DNA, RI (replication intermediates)",Hepatitis B virus [3]; 1 μM,53 pg/μg Cell DNA and 82 pg/μg Cell DNA and 67 pg/μg Cell DNA and 60 pg/μg Cell DNA and 54 pg/μg Cell DNA and 64 pg/μg Cell DNA and 66 pg/μg Cell DNA
same,HBV Virion DNA,"Hepatitis B virus [3]; 10 μM, Day 0",60 pg/ml Culture Medium and 66 pg/ml Culture Medium and 61 pg/ml Culture Medium and 52 pg/ml Culture Medium
same,HBV Virion DNA,"Hepatitis B virus [3]; 10 μM, Day 3",52 pg/ml Culture Medium and 68 pg/ml Culture Medium and 57 pg/ml Culture Medium and 60 pg/ml Culture Medium
same,HBV Virion DNA,"Hepatitis B virus [3]; 10 μM, Day 6",33 pg/ml Culture Medium and 40 pg/ml Culture Medium and 39 pg/ml Culture Medium and 41 pg/ml Culture Medium
same,HBV Virion DNA,"Hepatitis B virus [3]; 10 μM, Day 9, 0 = undetectable, cut-off 0.1 pg DNA/ml",10 pg/ml Culture Medium and 14 pg/ml Culture Medium and 11 pg/ml Culture Medium
same,"Intracellular HBV DNA, Mono (episomal 3.2-3.8 Kb HBV genomes)",Hepatitis B virus [3]; 10 μM,2.3 pg/μg Cell DNA and 2.2 pg/μg Cell DNA
same,"Intracellular HBV DNA, RI (replication intermediates)",Hepatitis B virus [3]; 10 μM,13 pg/μg Cell DNA and 14 pg/μg Cell DNA and 17 pg/μg Cell DNA and 12 pg/μg Cell DNA
same,inhibition of HBV replication,Hepatitis B virus [3]; in words,moderately inhibitory of HBV replication
same,Relative Level of HBeAg,"Hepatitis B virus [4]; 10 μM, nine days, 12960 min",57 % of Untreated Control
same,Relative Level of HBsAg,"Hepatitis B virus [4]; 10 μM, nine days, 12960 min",64 % of Untreated Control
same,Relative Level of Virion DNA,"Hepatitis B virus [4]; 10 μM, nine days, 12960 min",16 % of Untreated Control
same,activity at 10 µM,"Hepatitis B virus [4]; 10 μM, nine days, read-out: Relative Level of HBeAg",53%
same,activity at 10 µM,"Hepatitis B virus [4]; 10 μM, nine days, read-out: Relative Level of HBsAg",68%
same,activity at 10 µM,"Hepatitis B virus [4]; 10 μM, nine days, read-out: Relative Level of Virion DNA",13%
same,effect on HBsAg levels released into the culture medium,Hepatitis B virus [4]; in words,None of the compounds tested
same,reduction in HBeAg and virion DNA levels,Hepatitis B virus [4]; in words,caused a reduction
same,"viability at 216 h, 3 µM",[5],100 ± 1%
same,"viability at 216 h, 10 µM",[5],99 ± 2%
same,"viability at 216 h, 30 µM",[5],86 ± 2%
same,"viability at 216 h, 100 µM",[5],45 ± 2%
same,Cell toxicity (greater than 50% depression of dye uptake),[6],did not occur
